Biological target: T1, human type 1 glycine transporter (GlyT1) (Homo sapiens, UniProt P48067)
T1 construct: T98G cells (glioma cells) expressing human type 1 glycine transporter (GlyT1) were used; endogenous in cells; host or cells: T98G cells (human glioma cells)
T1 sequence (P48067 1-706): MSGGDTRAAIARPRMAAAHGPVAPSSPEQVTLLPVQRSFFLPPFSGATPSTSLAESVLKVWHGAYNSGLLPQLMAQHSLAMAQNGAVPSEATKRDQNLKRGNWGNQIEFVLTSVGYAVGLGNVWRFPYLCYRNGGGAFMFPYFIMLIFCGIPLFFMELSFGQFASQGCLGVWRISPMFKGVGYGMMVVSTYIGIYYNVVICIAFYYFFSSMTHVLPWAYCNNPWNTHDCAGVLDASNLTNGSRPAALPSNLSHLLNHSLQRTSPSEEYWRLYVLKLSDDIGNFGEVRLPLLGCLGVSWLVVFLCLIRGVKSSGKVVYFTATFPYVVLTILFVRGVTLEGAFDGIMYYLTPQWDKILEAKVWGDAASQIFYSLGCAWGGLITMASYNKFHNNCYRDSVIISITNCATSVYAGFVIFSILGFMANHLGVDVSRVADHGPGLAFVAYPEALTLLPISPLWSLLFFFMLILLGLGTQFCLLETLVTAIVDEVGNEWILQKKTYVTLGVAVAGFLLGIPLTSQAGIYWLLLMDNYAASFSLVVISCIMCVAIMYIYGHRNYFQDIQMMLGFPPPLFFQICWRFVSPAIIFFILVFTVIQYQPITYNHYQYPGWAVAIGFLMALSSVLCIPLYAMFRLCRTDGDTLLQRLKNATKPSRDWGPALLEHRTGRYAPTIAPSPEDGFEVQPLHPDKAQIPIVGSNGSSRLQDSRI
Assay: Glycine uptake inhibition experiment ([3H] glycine uptake in T98G cells expressing GlyT1)
Assay type: cell-based
Conditions: not given
Outline: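 T98G glioma cells expressing human GlyT1 were pretreated 10 min with compound in HEPES buffer pH 7.4 (0.2% BSA), then incubated with compound plus 250 nM final [3H]glycine for 15 min at room temperature. Intracellular radioactivity was counted after NaOH lysis; 10 μM ALX5407 defined non-specific uptake. IC50 came from 10^−9–10^−5 M curves.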

Point of comparison: `C[C@H](O)c1cccc2c1C(F)(F)C(=O)N2Cc1ncc(Cl)cc1C#N` [Compound 242], IC50 83 nM. Against it:
- C[C@H](O)c1cccc2c1C(F)(F)C(=O)N2Cc1ccncc1F [Compound 163, 3,3-difluoro-1-[(3-fluoropyridin-4-yl)methyl]-4-[(1S)-1-hydroxyethyl]-1,3-dihydro-2H-indol-2-one] — 4.9-fold higher, 410 nM
- C[C@H](O)c1cccc2c1C(F)(F)C(=O)N2Cc1cc(Cl)nc(C#N)c1 [Compound 187, 6-chloro-4-({3,3-difluoro-4-[(1S)-1-hydroxyethyl]-2-oxo-2,3-dihydro-1H-indol-1-yl}methyl)pyridine-2-carbonitrile] — 2.4-fold lower, 34 nM
- C[C@H](O)c1cccc2c1C(F)(F)C(=O)N2Cc1cnc(Cl)nc1 [Compound 214, 1-[(2-chloropyrimidin-5-yl)methyl]-3,3-difluoro-4-[(1S)-1-hydroxyethyl]-1,3-dihydro-2H-indol-2-one] — 1.7-fold higher, 140 nM
- Cn1c(CN2C(=O)C(F)(F)c3c(C(O)C(F)F)cccc32)nc2cc(F)ccc2c1=O (single isomer, unassigned) [Compound 178, 2-{[4-(2,2-difluoro-1-hydroxyethyl)-3,3-difluoro-2-oxo-2,3-dihydro-1H-indol-1-yl]methyl}-7-fluoro-3-methylquinazolin-4(3H)-one] — 1.9-fold lower, 44 nM
- COc1nc(Cl)ccc1CN1C(=O)C(F)(F)c2c([C@H](C)O)cccc21 [Compound 230, 1-[(6-chloro-2-methoxypyridin-3-yl)methyl]-3,3-difluoro-4-[(1S)-1-hydroxyethyl]-1,3-dihydro-2H-indol-2-one] — within 1.5-fold, 63 nM
- O=C1N(Cc2cncc(Cl)c2)c2cc(F)cc(C(O)C(F)F)c2C1(F)F (stereo not drawn) [Compound 234, 1-[(5-chloropyridin-3-yl)methyl)-4-(2,2-difluoro-1-hydroxyethyl)-3,3,6-trifluoro-1,3-dihydro-2H-indol-2-one] — 7.5-fold higher, 620 nM
- C[C@H](O)c1cccc2c1C(F)(F)C(=O)N2Cc1ncc(Cl)cc1Cl [Compound 225, 1-[(3,5-dichloropyridin-2-yl)methyl]-3,3-difluoro-4-[(1S)-1-hydroxyethyl]-1,3-dihydro-2H-indol-2-one] — within 1.5-fold, 57 nM
- C[C@H](O)c1cccc2c1C(F)(F)C(=O)N2Cc1cccnc1Cl [Compound 210, 1-[(2-chloropyridin-3-yl)methyl]-3,3-difluoro-4-[(1S)-1-hydroxyethyl]-1,3-dihydro-2H-indol-2-one] — 8.2-fold higher, 680 nM
- C[C@H](O)c1ccc(F)c2c1C(F)(F)C(=O)N2Cc1ccnc(C#N)c1 [Compound 277, 4-({3,3,7-trifluoro-4-[(1S)-1-hydroxyethyl]-2-oxo-2,3-dihydro-1H-indol-1-yl}methyl)pyridine-2-carbonitrile] — 5.9-fold lower, 14 nM
- C[C@H](O)c1cccc2c1C(F)(F)C(=O)N2Cc1ccnc(C2CC2)c1 [Compound 175, 1-[(2-cyclopropylpyridin-4-yl)methyl]-3,3-difluoro-4-[(1S)-1-hydroxyethyl]-1,3-dihydro-2H-indol-2-one] — 3.6-fold lower, 23 nM

Same assay, conditions: glycine uptake inhibition

Point of comparison: `CCC(O)c1cccc2c1C(F)(F)C(=O)N2Cc1cccc(Cl)n1` (stereo not drawn) [Compound 15, 1-[(6-chloropyridin-2-yl)methyl]-3,3-difluoro-4-(1-hydroxypropyl)-1,3-dihydro-2H-indol-2-one], IC50 180 nM. Against it:
- C[C@H](O)c1cccc2c1C(F)(F)C(=O)N2Cc1nc2ccccc2n(C)c1=O [Compound 101, 3-({3,3-difluoro-4-[(1S)-1-hydroxyethyl]-2-oxo-2,3-dihydro-1H-indol-1-yl}methyl)-1-methylquinoxalin-2(1H)-one] — 4.4-fold lower, 41 nM
- O=C1N(Cc2cc(F)ccn2)c2cccc(C(O)C(F)F)c2C1(F)F (single isomer, unassigned) [Compound 154, 4-(2,2-difluoro-1-hydroxyethyl)-3,3-difluoro-1-[(4-fluoropyridin-2-yl)methyl]-1,3-dihydro-2H-indol-2-one] — within 1.5-fold, 260 nM
- C[C@H](O)c1cccc2c1C(F)(F)C(=O)N2Cc1ccc2ccccc2n1 [Compound 77, 3,3-difluoro-4-[(1S)-1-hydroxyethyl]-1-(quinolin-2-ylmethyl)-1,3-dihydro-2H-indol-2-one] — 4.9-fold lower, 37 nM
- O=C1N(Cc2ccnc(C(F)F)c2)c2cccc(C(O)C(F)F)c2C1(F)F (single isomer, unassigned) [Compound 152, 4-(2,2-difluoro-1-hydroxyethyl)-1-{[2-(difluoromethyl)pyridin-4-yl]methyl}-3,3-difluoro-1,3-dihydro-2H-indol-2-one] — 2-fold lower, 88 nM
- C[C@H](O)c1cccc2c1C(F)(F)C(=O)N2Cc1ccnc(-n2cncn2)c1 [Compound 69, 3,3-difluoro-4-[(1S)-1-hydroxyethyl]-1-{[2-(1H-1,2,4-triazol-1-yl)pyridin-4-yl]methyl}-1,3-dihydro-2H-indol-2-one] — 4-fold lower, 45 nM
- C[C@H](O)c1cccc2c1C(F)(F)C(=O)N2Cc1ccnc(F)c1 [Compound 42, 3,3-difluoro-1-[(2-fluoropyridin-4-yl)methyl]-4-[(1S)-1-hydroxyethyl]-1,3-dihydro-2H-indol-2-one] — 3.6-fold lower, 50 nM
- C[C@H](O)c1cccc2c1C(F)(F)C(=O)N2Cc1cncc(C#N)c1 [Compound 70, 5-({3,3-difluoro-4-[(1S)-1-hydroxyethyl]-2-oxo-2,3-dihydro-1H-indol-1-yl}methyl)pyridine-3-carbonitile] — 2-fold lower, 91 nM
- O=C1N(Cc2ccnc(Cl)c2)c2cccc([C@H](O)C(F)(F)F)c2C1(F)F [Compound 31, 1-[(2-chloropyridin-4-yl)methyl]-3,3-difluoro-4-[(1S)-2,2,2-trifluoro-1-hydroxyethyl]-1,3-dihydro-2H-indol-2-one] — 1.9-fold higher, 350 nM
- Cc1nc(CN2C(=O)C(F)(F)c3c([C@H](C)O)cccc32)oc1C [Compound 91, 1-[(4,5-dimethyl-1,3-oxazol-2-yl)methyl]-3,3-difluoro-4-[(1S)-1-hydroxyethyl]-1,3-dihydro-2H-indol-2-one] — within 1.5-fold, 130 nM
- O=C1N(Cc2cncc(Cl)c2)c2ccc(F)c(C(O)C(F)(F)F)c2C1(F)F (stereo not drawn) [Compound 48, 1-[(5-chloropyridin-3-yl)methyl]-3,3,5-trifluoro-4-(2,2,2-trifluoro-1-hydroxyethyl)-1,3-dihydro-2H-indol-2-one] — 2.1-fold lower, 85 nM
- CC(O)c1cccc2c1C(F)(F)C(=O)N2Cc1ccnc(Cl)c1 (single isomer, unassigned) [Compound 33, 1-[(2-chloropyridin-4-yl)methyl]-3,3-difluoro-4-(1-hydroxyethyl)-1,3-dihydro-2H-indol-2-one] — 10-fold lower, 18 nM
- C[C@H](O)c1cccc2c1C(F)(F)C(=O)N2Cc1nc2cc(F)ccc2o1 [Compound 92, 3,3-difluoro-1-[(5-fluoro-1,3-benzoxazol-2-yl)methyl]-4-[(1S)-1-hydroxyethyl]-1,3-dihydro-2H-indol-2-one] — 2.6-fold lower, 69 nM
- C[C@H](O)c1cccc2c1C(F)(F)C(=O)N2Cc1cccc(C(F)(F)F)n1 [Compound 67, 3,3-difluoro-4-[(1S)-1-hydroxyethyl]-1-{[6-(trifluoromethyl)pyridin-2-yl]methyl}-1,3-dihydro-2H-indol-2-one] — 11-fold lower, 17 nM
- O=C1N(Cc2cccc(Cl)n2)c2cccc(C(O)C(F)(F)F)c2C1(F)F (single isomer, unassigned) [Compound 8, 1-[(6-chloropyridin-2-yl)methyl]-3,3-difluoro-4-(2,2,2-trifluoro-1-hydroxyethyl)-1,3-dihydro-2H-indol-2-one] — 4.4-fold higher, 800 nM
- C[C@H](O)c1cccc2c1C(F)(F)C(=O)N2Cc1ccnc(C(F)(F)F)c1 [Compound 86, 3,3-difluoro-4-[(1S)-1-hydroxyethyl]-1-{[2-(trifluoromethyl)pyridin-4-yl]methyl}-1,3-dihydro-2H-indol-2-one] — 7.5-fold lower, 24 nM

Same assay, conditions: table section whose head prints (μm)

Point of comparison: `O=C1N(Cc2cnc(Cl)cc2Cl)c2cccc(C(O)C(F)F)c2C1(F)F` (single isomer, unassigned) [Compound 269, 1-[(4,6-dichloropyridin-3-yl)methyl]-4-(2,2-difluoro-1-hydroxyethyl)-3,3-difluoro-1,3-dihydro-2H-indol-2-one], IC50 330 nM. Against it:
- O=C1N(Cc2cnccc2Cl)c2cccc(C(O)C(F)F)c2C1(F)F (single isomer, unassigned) [Compound 260, 1-[(4-chloropyridin-3-yl)mettiyl]-4-(2,2-difluoro-1-hydroxyethyl)-3,3-difluoro-1,3-dihydro-2H-indol-2-one] — 4.5-fold higher, 1500 nM
- N#Cc1cc(CN2C(=O)C(F)(F)c3c(C(O)C(F)F)cccc32)cnc1F (single isomer, unassigned) [Compound 272, 5-{[4-(2,2-difluoro-1-hydroxyethyl)-3,3-difluoro-2-oxo-2,3-dihydro-1H-indol-1-yl]methyl}-2-fluoropyridine-3-carbonitrile] — 12-fold lower, 27 nM
